What all share (assay type): in vivo, mouse
One experiment has as its system TGF-β1. Description: Quantitative RT-PCR of TGF-β1 in infarcted region of MI heart. To be noted: day 3 and day 7 after injury. Here is the method: (§1) To induce Cre recombination to achieve GFP labeling of cardiomyocytes, tamoxifen (Sigma) was dissolved in sunflower oil (Sigma) at a concentration of 5 mg/ml. The tamoxifen solution was injected intraperitoneally into M/Z mice daily at a dosage of 40 μg per 1 g body weight for 14 days, and the same dosage was injected twice daily for short-term labeling using methods known in the art (Laugwitz, K.-L. et al. Nature 433, 647-653 (2005)). All experimental conditions were optimized prior to the PGE2, indomethacin and TGF-β Type I Receptor Kinase Inhibitor II (ALK5 Inhibitor II, ALK5i, Merck) treatments. The mice treated with PGE2 or PGI2 (Vegiopoulos, A. et al. Science 328, 1158-1161 (2010)) (both from Sigma) were injected intraperitoneally with 3.33 ng of drug per 1 g of body weight dissolved in absolute ethanol twice daily. […]
(§2) The total RNA isolated from the ischemic region or remote area of MI hearts was reverse transcribed using the SuperScript III (Invitrogen) system according to the manufacturer's protocol. For quantitative PCR, the SYBR Green reagent (Maestrogen) was used according to the manufacturer's protocol. The analysis of relative gene expression was performed using the 2̂[−delta delta Ct] method and sequence-specific primers designed for semi-quantitative PCR and real-time RT-PCR (FIG. 11).

Another experiment concerns Sca-1+ cells. Description: Flow cytometry of Sca-1+/GFP+ cardiac small cells on day 3 post-MI. To be noted: tamoxifen 80 μg/g per day for 3 days, P<0.001. Here is the method: as §1, with “daily. For the indomethacin treatment, mice were fed with water containing indomethacin (Sigma, 15 μg/ml) for different periods of time. The indomethacin-containing water was changed every 3 days. The mice subjected to the celecoxib (Lyons, T. R. et al. Nat. Med. 17, 1109-1115 (2011)) (Sigma) treatment were injected intraperitoneally with 5 μg of drug per 1 g of body weight daily. For ALK5i treatment, aged mice were injected intraperitoneally once per day with 1 μg of drug per 1 g of body weight one day before surgery and continuously until day 10 post-MI.” for “daily.”
On the technique in general: Flow cytometry measures light scatter and fluorescence of single cells or particles in a stream.

The test system of another experiment is Nkx2.5. As to the kind of experiment: Quantitative RT-PCR of Nkx2.5 in MI heart and in isolated cardiac Sca-1+ cells. The method, then:
as §1
The total RNA isolated from the ischemic region or remote area of MI hearts was reverse transcribed using the SuperScript III (Invitrogen) system according to the manufacturer's protocol. For quantitative PCR, the SYBR Green reagent (Maestrogen) was used according to the manufacturer's protocol. The analysis of relative gene expression was performed using the 2̂[−delta delta Ct] method and sequence-specific primers designed for semi-quantitative PCR and real-time RT-PCR (FIG. 11). […]

In experiment [1] the test system is MMP2, MMP9, TNF-α, IL-1β and IL-6. Description: Quantitative RT-PCR of inflammatory cytokines in infarct region. To be noted: young mice. Here is the method:
as §1, §2

SMILES strings stand for the structures.

Turning to `CCCCC[C@H](O)/C=C/C1C(O)CC(=O)C1C/C=C\CCCC(=O)O` (stereo partly drawn) [PGE2, (5Z,11α,13E,15S)-7-[3-hydroxy-2-(3-hydroxyoct-1-enyl)-5-oxo-cyclopentyl]hept-5-enoic acid], the “expression of TGF-β1” value in the experiment on TGF-β1 (aged mice) was “decline”; in the experiment on TGF-β1 (young mice), “not significantly altered”. Also, the “number of Sca-1+/GFP+ cells” value with Sca-1+ cells is on record as “expanding”. Further, the “expression of Nkx2.5 in Sca-1+ cells” value with Nkx2.5 (cardiac Sca-1+ cells isolated on day 3 after injury) is recorded as “elevated”. In the experiment on Nkx2.5 (young mice, fold change normalized to sham), the “expression of Nkx2.5 in the MI heart” value was “enhances”. In addition, in experiment [1], the “expression of inflammatory cytokines acting downstream of PGE2” value is on record as “further enhanced”.

Source of the values: US20130331389A1, “Methods and Compositions for Cardiomyocyte Replenishment by Endogenous and Progenitor Stem Cells” (NATIONAL CHENG KUNG UNIVERSITY, priority 2012, published 2013).
